The text below walks through data of US20060281700A1, “SYNERGISTIC MODULATION OF FLT3 KINASE USING AMINOPYRIMIDINES KINASE MODULATORS” (priority 2005, published 2006).

The subject of one test is MV4-11 cells. Description: Inhibition of MV4-11 cell proliferation (CellTiterGlo, 72 hours). Type of test: cell-based. As to conditions: Homo sapiens; 72 hours growth; uncertainty ±20%. On the procedure:
Inhibition Of MV4-11 and Baf3 Cell Proliferation
To assess the cellular potency of the FLT3 inhibitors of Formula I′, FLT3 specific growth inhibition was measured in the leukemic cell line MV4-11 (ATCC Number: CRL-9591). […] MV4-11 cells cannot grow and survive without active FLT3ITD.
To measure proliferation inhibition by test compounds, the luciferase based CellTiterGlo reagent (Promega), which quantifies total cell number based on total cellular ATP concentration, was used. Cells are plated at 10,000 cells per well in 100 ul of in RPMI media containing penn/strep, 10% FBS and 1 ng/ml GM-CSF or 1 ng/ml IL-3 for MV4-11 and Baf3 cells respectively.
Compound dilutions or 0.1% DMSO (vehicle control) are added to cells and the cells are allowed to grow for 72 hours at standard cell growth conditions (37° C., 5% CO2). For activity measurements in MV4-11 cells grown in 50% plasma, cells were plated at 10,000 cells per well in a 1:1 mixture of growth media and human plasma (final volume of 100 μL). To measure total cell growth an equal volume of CellTiterGlo reagent was added to each well, according to the manufacturer's instructions, and luminescence was quantified. Total cell growth was quantified as the difference in luminescent counts (relative light units, RLU) of cell number at Day 0 compared to total cell number at Day 3 (72 hours of growth and/or compound treatment). One hundred percent inhibition of growth is defined as an RLU equivalent to the Day 0 reading. Zero percent inhibition was defined as the RLU signal for the DMSO vehicle control at Day 3 of growth. All data points are an average of triplicate samples. […] Inhibition and IC50 data analysis was done with GraphPad Prism using a non-linear regression fit with a multiparamater, sigmoidal dose-response (variable slope) equation.
MV4-11 cells express the FLT3 internal tandem duplication mutation, and thus are entirely dependent upon FLT3 activity for growth. […] In contrast, the Baf3 cell proliferation is driven by the cytokine IL-3 and thus are used as a non-specific toxicity control for test compounds.
In general terms: ATP-based viability assays read luminescence as a measure of living cells.

In test [1] the target is T1, isolated kinase domain of the human FLT3 receptor (a.a. 571-993) (Homo sapiens, UniProt P36888).
T1 construct: isolated kinase domain of the human FLT3 receptor (a.a. 571-993)
T1 sequence (P36888 571-993): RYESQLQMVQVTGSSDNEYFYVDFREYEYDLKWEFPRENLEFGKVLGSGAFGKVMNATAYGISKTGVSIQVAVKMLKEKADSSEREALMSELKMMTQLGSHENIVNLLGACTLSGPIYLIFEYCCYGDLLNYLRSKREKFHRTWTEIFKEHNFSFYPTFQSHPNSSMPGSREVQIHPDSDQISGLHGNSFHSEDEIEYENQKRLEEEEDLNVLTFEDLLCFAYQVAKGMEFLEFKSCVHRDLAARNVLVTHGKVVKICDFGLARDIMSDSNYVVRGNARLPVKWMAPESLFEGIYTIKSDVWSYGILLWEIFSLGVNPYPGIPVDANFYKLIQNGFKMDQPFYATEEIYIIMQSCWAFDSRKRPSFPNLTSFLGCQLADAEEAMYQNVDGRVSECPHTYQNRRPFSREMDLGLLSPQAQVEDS
Description: FLT3 Fluorescence Polarization Kinase Assay. Type of test: biochemical. As to conditions: 10 nM FLT3 571-993, 150 uM ATP; uncertainty ±10%. On the procedure: FLT3 Fluorescence Polarization Kinase Assay
To determine the activity of the FLT3 inhibitors of Formula I′ in an in vitro kinase assay, inhibition of the isolated kinase domain of the human FLT3 receptor (a.a. 571-993) was performed using the following fluorescence polarization (FP) protocol. The FLT3 FP assay utilizes the fluorescein-labeled phosphopeptide and the anti-phosphotyrosine antibody included in the Panvera Phospho-Tyrosine Kinase Kit (Green) supplied by Invitrogen. When FLT3 phosphorylates polyGlu4Tyr, the fluorescein-labeled phosphopeptide is displaced from the anti-phosphotyrosine antibody by the phosphorylated poly Glu4Tyr, thus decreasing the FP value. The FLT3 kinase reaction is incubated at room temperature for 30 minutes under the following conditions: 10 nM FLT3 571-993, 20 ug/mL poly Glu4Tyr, 150 uM ATP, 5 mM MgCl2, 1% compound in DMSO. The kinase reaction is stopped with the addition of EDTA. The fluorescein-labeled phosphopeptide and the anti-phosphotyrosine antibody are added and incubated for 30 minutes at room temperature.
All data points are an average of triplicate samples. Inhibition and IC50 data analysis was done with GraphPad Prism using a non-linear regression fit with a multiparamater, sigmoidal dose-response (variable slope) equation.
On the technique in general: Fluorescence polarisation rises when a labelled molecule tumbles more slowly, as on binding a larger partner.

As for `CO/N=C/c1c(N)ncnc1N1CCC(NC(=O)Nc2ccc(C(C)C)cc2)C1` (stereo not shown) [Number 30, 1-{1-[6-Amino-5-(methoxyimino-methyl)-pyrimidin-4-yl]-pyrrolidin-3-yl}-3-(4-isopropyl-phenyl)-urea], the IC50 (as a rule, the midpoint of a concentration-inhibition curve) turned out to be 209 nM with MV4-11 cells and 4700 nM in test [1].
On to `CO/N=C/c1c(N)ncnc1N1CCC(NC(=O)Nc2ccc(N3CCCC3)cc2)CC1` [Number 24, 1-{1-[6-Amino-5-(methoxyimino-methyl)-pyrimidin-4-yl]-piperidin-4-yl}-3-(4-pyrrolidin-1-yl-phenyl)-urea], for which the IC50 in the test on MV4-11 cells was found to be 1100 nM; in test [1] it was 198 nM.
As to `CO/N=C/c1c(N)ncnc1N1CCC(NC(=O)Cc2ccc(C(C)C)cc2)CC1` [Number 16, N-{1-[6-Amino-5-(methoxyimino-methyl)-pyrimidin-4-yl]-piperidin-4-yl}-2-(4-isopropyl-phenyl)-acetamide], the values for the IC50 (in the test on MV4-11 cells; in test [1]) were 1400 nM and 1800 nM, respectively.
In the case of `CC(C)Oc1ccc(NC(=O)OC2CCN(c3ncnc(N)c3/C=N/OCCN3CCOCC3)CC2)cc1` [Number 3, (4-Isopropoxy-phenyl)-carbamic acid 1-{6-amino-5-[(2-morpholin-4-yl-ethoxyimino)-methyl]-pyrimidin-4-yl}-piperidin-4-yl ester], the figures for the IC50 (with MV4-11 cells; in test [1]) were 2800 nM and 820 nM, respectively.
Regarding `CC(C)c1ccc(NC(=O)NC2CCN(c3ncnc(N)c3/C=N/OCCN)C2)cc1` (stereo not shown) [Number 27, 1-(1-{6-Amino-5-[(2-amino-ethoxyimino)-methyl]-pyrimidin-4-yl}-pyrrolidin-3-yl)-3-(4-isopropyl-phenyl)-urea], the results for the IC50 (in the test on MV4-11 cells; in test [1]) were 1700 nM and greater than 10000 nM, respectively.
